The IC50 is the concentration that gives 50% inhibition.

One experiment addresses T1, Axl (Homo sapiens, UniProt P30530).
T1 construct: endogenous in cells; host or cells: HeLa cells
T1 sequence (P30530 26-894): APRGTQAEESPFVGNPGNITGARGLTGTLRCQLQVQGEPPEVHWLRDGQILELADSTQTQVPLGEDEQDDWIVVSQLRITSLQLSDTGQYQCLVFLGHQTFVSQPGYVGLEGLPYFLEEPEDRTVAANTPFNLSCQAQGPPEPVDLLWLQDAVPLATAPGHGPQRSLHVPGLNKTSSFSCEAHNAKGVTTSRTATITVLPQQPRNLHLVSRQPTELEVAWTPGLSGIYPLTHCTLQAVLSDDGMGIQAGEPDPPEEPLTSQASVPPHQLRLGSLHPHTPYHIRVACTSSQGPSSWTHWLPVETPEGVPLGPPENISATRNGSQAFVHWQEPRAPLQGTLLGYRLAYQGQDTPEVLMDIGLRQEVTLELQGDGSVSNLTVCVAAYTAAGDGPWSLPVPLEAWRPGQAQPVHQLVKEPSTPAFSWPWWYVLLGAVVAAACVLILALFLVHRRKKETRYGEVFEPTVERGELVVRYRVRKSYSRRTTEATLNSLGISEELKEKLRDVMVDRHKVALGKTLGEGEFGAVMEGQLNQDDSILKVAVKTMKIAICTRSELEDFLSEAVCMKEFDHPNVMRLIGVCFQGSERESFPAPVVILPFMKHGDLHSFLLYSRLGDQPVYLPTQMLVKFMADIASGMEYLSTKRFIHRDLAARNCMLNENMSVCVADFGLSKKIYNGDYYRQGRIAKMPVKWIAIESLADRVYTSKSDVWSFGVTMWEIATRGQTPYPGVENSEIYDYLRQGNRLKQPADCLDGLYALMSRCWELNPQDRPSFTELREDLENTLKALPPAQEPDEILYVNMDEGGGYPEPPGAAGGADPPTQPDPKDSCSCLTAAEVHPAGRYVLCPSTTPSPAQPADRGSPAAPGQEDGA
The experiment is described as follows: Phospho-Akt In-Cell Western Assay (inhibition of Axl activity after Axl-antibody cross-linking). Format: cell-based.
Conditions: not given
The essentials:
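Phospho-Akt was detected in formaldehyde-fixed cells by in-cell immunostaining with HRP chemiluminescence. Before fixation, HeLa cells kept 24 h in low-serum medium containing 500 ng/mL Axl/Fc received compound for 1 h at 37 °C, followed by 5-min Axl activation through antibody clustering.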
In turn, `Nc1nc(Nc2ccc(N3C4CCC3CC(N3CCCC3)C4)c(F)c2)nn1-c1cc2c(nn1)-c1ccccc1CCC2` (stereo not shown) [Compound 76, 1-(6,7-dihydro-5H-benzo[6,7]cyclohepta[1,2-c]pyridazin-3-yl)-N^3-(3-fluoro-4-(3-(pyrrolidin-1-yl)-8-azabicyclo[3.2.1]oct-8-yl)phenyl)-1H-1,2,4-triazole-3,5-diamine] came in with an IC50 of less than 1000 nM.

The experiment is the same for the next values; noted with them: Hela cells, phospho-Akt chemiluminescence normalized to relative cell number; compounds of formula (Ia), Table 1; read-out: IC50.
With `CN(C)CCN1CCOc2cc(Nc3nc(N)n(-c4cc5c(nn4)-c4ccccc4CCC5)n3)ccc21` [Compound 121, 1-(6,7-dihydro-5H-benzo[6,7]cyclohepta[1,2-c]pyridazin-3-yl)-N^3-(4-(2-dimethylaminoethyl)-(3,4-dihydro-2H-benzo[b][1,4]oxazin-7-yl))-1H-1,2,4-triazole-3,5-diamine], the IC50 is less than 1000 nM. `CN1CCN(c2ccc(Nc3nc(N)n(-c4cc5c(nn4)-c4ccccc4N(C)CC5)n3)cc2)CC1` [Compound 41, 1-(7-methyl-6,7-dihydro-5H-benzo[2,3]azepino[4,5-c]pyridazin-3-yl)-N^3-(4-(N-methylpiperazin-1-yl)phenyl)-1H-1,2,4-triazole-3,5-diamine]: the IC50 was in the range of 1000 to 10000 nM.

In the case of `Nc1nc(Nc2ccc(N3CCC(N4CCCC4)CC3)nc2)nn1-c1cc2c(nn1)-c1ccccc1CCC2` [Compound 29, 1-(6,7-dihydro-5H-benzo[6,7]cyclohepta[1,2-c]pyridazin-3-yl)-N^3-(6-(4-(pyrrolidin-1-yl)piperidin-1-yl)pyridine-3-yl)-1H-1,2,4-triazole-3,5-diamine], the IC50 is 1000 to 10000 nM.

As to `Nc1nc(Nc2ccc(N3CCC(N4CC5CN(C6CCCCC6)CC5C4)CC3)c(F)c2)nn1-c1cc2c(nn1)-c1ccccc1CCC2` (stereo not shown) [Compound 88, 1-(6,7-dihydro-5H-benzo[6,7]cyclohepta[1,2-c]pyridazin-3-yl)-N^3-(3-fluoro-4-(4-(5-cyclohexyl-octahydropyrrolo[3,4-c]pyrrolyl)piperidin-1-yl)phenyl)-1H-1,2,4-triazole-3,5-diamine], the IC50 was less than 1000 nM. In the case of `CCN(CC)C1CCN(c2ccc(Nc3nc(N)n(C4=Nc5ccccc5Sc5ccccc54)n3)cc2F)CC1` [Compound 51, 1-((Z)-dibenzo[b,f][1,4]thiazepin-11-yl)-N^3-(3-fluoro-4-(4-diethylaminopiperidin-1-yl)phenyl)-1H-1,2,4-triazole-3,5-diamine], the IC50 lay in the range of 1000 to 10000 nM. On the same count and under the same terms, with `CN1CCC(C2CCN(c3ccc(Nc4nc(N)n(-c5cc6c(nn5)-c5ccccc5CCC6)n4)cc3F)CC2)CC1` [Compound 70, 1-(6,7-dihydro-5H-benzo[6,7]cyclohepta[1,2-c]pyridazin-3-yl)-N^3-(3-fluoro-4-(4-N-methylpiperidin-4-yl-piperidin-1-yl)phenyl)-1H-1,2,4-triazole-3,5-diamine] the figure was less than 1000 nM; with `Nc1nc(Nc2ccc(N3CC[C@H]4CCCC[C@@H]4C3)c(F)c2)nn1-c1cc2c(nn1)-c1ccccc1CCC2` [Compound 127, 1-(6,7-dihydro-5H-benzo[6,7]cyclohepta[1,2-c]pyridazin-3-yl)-N^3-(3-fluoro-4-((4aR,8aS)-decahydroisoquinolin-2-yl)phenyl)-1H-1,2,4-triazole-3,5-diamine], 1000 to 10000 nM; with `CN1CCN(c2ccc(Nc3nc(N)n(C4=Nc5ccccc5Sc5ccccc54)n3)cc2)CC1` [Compound 50, 1-((Z)-dibenzo[b,f][1,4]thiazepin-11-yl)-N^3-(4-(N-methylpiperazin-1-yl)phenyl)-1H-1,2,4-triazole-3,5-diamine], 1000 to 10000 nM. For the molecule `COc1ccc2c(c1)CCCc1cc(-n3nc(Nc4ccc(N5CCC(N6CCCC6)CC5)c(F)c4)nc3N)nnc1-2` [Compound 52, 1-(6,7-dihydro-5H-9-methoxybenzo[6,7]cyclo-hepta[1,2-c]pyridazin-3-yl)-N^3-(3-fluoro-4-(4-(pyrrolidin-1-yl)piperidin-1-yl)phenyl)-1H-1,2,4-triazole-3,5-diamine], the IC50 was less than 1000 nM. As to `Nc1nc(Nc2ccc(-c3ccc4c(c3)OCO4)nc2)nn1-c1cc2c(nn1)-c1ccccc1CCC2` [Compound 97, 1-(6,7-dihydro-5H-benzo[6,7]cyclohepta[1,2-c]pyridazin-3-yl)-N^3-(6-(benzo[d][1,3]dioxole-6-yl)pyridine-3-yl)-1H-1,2,4-triazole-3,5-diamine], the IC50 was greater than 20000 nM. For the molecule `CN(C)Cc1nc2cc(Nc3nc(N)n(-c4cc5c(nn4)-c4ccccc4CCC5)n3)ccc2[nH]1` [Compound 13, 1-(6,7-dihydro-5H-benzo[6,7]cyclohepta[1,2-c]pyridazin-3-yl)-N^3-(2-((dimethylamino)methyl)-1H-benzo[d]imidazol-5-yl)-1H-1,2,4-triazole-3,5-diamine], the concentration for half-maximal inhibition (IC50) was 1000 to 10000 nM. On the same count and under the same terms, with `CN1CCN(c2ccc(Nc3nc(N)n(-c4ncc5c(n4)-c4ccccc4CCC5)n3)cc2)CC1` [Compound 40, 1-(6,7-dihydro-5H-benzo[6,7]cyclohepta[1,2-d]pyrimidin-2-yl)-N^3-(4-(N-methylpiperazin-1-yl)phenyl)-1H-1,2,4-triazole-3,5-diamine] the figure was 1000 to 10000 nM; with `Cc1cc(Nc2nc(N)n(-c3cc4c(nn3)-c3ccccc3CCC4)n2)ccc1N1CCC(N2CCCC2)CC1` [Compound 106, 1-(6,7-dihydro-5H-benzo[6,7]cyclohepta[1,2-c]pyridazin-3-yl)-N^3-(3-methyl-4-(4-pyrrolidin-1-ylpiperidinyl)phenyl)-1H-1,2,4-triazole-3,5-diamine], less than 1000 nM; with `Nc1nc(Nc2ccc(I)nc2)nn1-c1cc2c(nn1)-c1ccccc1CCC2` [Compound 92, 1-(6,7-dihydro-5H-benzo[6,7]cyclohepta[1,2-c]pyridazin-3-yl)-N^3-(6-iodopyridin-3-yl)-1H-1,2,4-triazole-3,5-diamine], greater than 20000 nM.

`COCCNC(=O)c1ccc(Nc2nc(N)n(-c3cc4c(nn3)-c3ccccc3CCC4)n2)cc1` [Compound 20, 1-(6,7-dihydro-5H-benzo[6,7]cyclohepta[1,2-c]pyridazin-3-yl)-N^3-(4-((2-(methoxy)ethyl)amino-carbonyl)phenyl)-1H-1,2,4-triazole-3,5-diamine]: the IC50 was 1000 to 10000 nM. In the case of `Nc1nc(Nc2ccc(N3CCN(C4CC5CCC4C5)CC3)cc2)nn1-c1ncnc2c1CCCc1ccccc1-2` (stereo not shown) [Compound 38, 1-(6,7-dihydro-5H-benzo[6,7]cyclohepta[1,2-d]pyrimidin-4-yl)-N3-(4-(4-(bicyclo[2.2.1]heptan-2-yl)piperazin-1-yl)phenyl)-1H-1,2,4-triazole-3,5-diamine], the IC50 is less than 1000 nM.

With `Nc1nc(Nc2ccc(N3CCC(N4CCCC4)CC3)c(F)c2)nn1-c1cc2c(nn1)-c1ccccc1SCC2` [Compound 119, 1-(6,7-dihydro-5H-benzo[2,3]thiepino[4,5-c]pyridazin-3-yl)-N^3-(3-fluoro-4-(4-pyrrolidin-1-ylpiperidinyl)phenyl)-1H-1,2,4-triazole-3,5-diamine], the IC50 is less than 1000 nM.

The same experiment, now with this note: Hela cells, phospho-Akt chemiluminescence normalized to relative cell number; compounds of formula (Ib), Table 2; read-out: IC50.
Consider `CN(C)Cc1nc2cc(Nc3nc(N)nn3-c3cc4c(nn3)-c3ccccc3CCC4)ccc2[nH]1` [Compound 159, 1-(6,7-dihydro-5H-benzo[6,7]cyclohepta[1,2-c]pyridazin-3-yl)-N^5-(2-((dimethylamino)methyl)-1H-benzo[d]imidazol-5-yl)-1H-1,2,4-triazole-3,5-diamine], for which the IC50 is greater than 20000 nM.

Staying with this experiment, now noted: inhibition of Axl activity; Table 1, compounds of formula (Ia); read-out: IC50.
As for `CN1CCN(C2CCN(c3ccc(Nc4nc(N)n(-c5cc6c(nn5)-c5ccc(Cl)cc5CCC6)n4)cc3F)CC2)CC1` [Compound 144, 1-(6,7-dihydro-9-chloro-5H-benzo[6,7]cyclohepta[1,2-c]pyridazin-3-yl)-N^3-(3-fluoro-4-(4-(N-methylpiperazin-1-yl)piperidin-1-yl)phenyl)-1H-1,2,4-triazole-3,5-diamine], the IC50 was 1000 to 10000 nM. On to `Nc1nc(Nc2ccc(C=CCN3CCC(N4CCCCC4)CC3)cc2)nn1-c1cc2c(nn1)-c1ccccc1CCC2` [Compound 197, 1-(6,7-dihydro-5H-benzo[6,7]cyclohepta[1,2-c]pyridazin-3-yl)-N^3-(4-(4-(piperidin-1-yl)piperidin-1-ylprop-1-enyl)phenyl)-1H-1,2,4-triazole-3,5-diamine], for which the IC50 lay within 1000 to 10000 nM.

On to `Cc1csc2c(-n3nc(Nc4cnc5c(c4)CCC4(CCC5)OCC(C)(C)CO4)nc3N)nc(Cl)nc12` [Compound 246, 1-(2-chloro-7-methylthieno[3,2-d]pyrimidin-4-yl)-N^3-(5′,5′-dimethyl-6,8,9,10-tetrahydro-5H-spiro[cycloocta[b]pyridine-7,2′-[1,3]dioxane]-3-yl)-1H-1,2,4-triazole-3,5-diamine], for which the IC50 is less than 1000 nM.

Source of the values: US7709482B2, “Polycyclic heteroaryl substituted triazoles useful as Axl inhibitors” (Rigel Pharmaceuticals, Inc., priority 2006, dated 2010).
